From article PMC12668310, “High‐Throughput Synthesis and Screening of a Cyanimide Library Identifies Selective Inhibitors of ISG15‐Specific Protease mUSP18” (Angewandte Chemie (International Ed. in English), 2025)

Tests used:
Assay type in all cases: biochemical
UCHL1 = target: T1, UCHL1 (Homo sapiens, UniProt P09936); test: High-throughput screening, Ub-RhoMP, single dose 1.25 µM; conditions: individual amine building block (plate NCN-5); read-out: BB %inhibition UCHL1
T1 construct: (1-223); made in house
T1 sequence (P09936 1-223): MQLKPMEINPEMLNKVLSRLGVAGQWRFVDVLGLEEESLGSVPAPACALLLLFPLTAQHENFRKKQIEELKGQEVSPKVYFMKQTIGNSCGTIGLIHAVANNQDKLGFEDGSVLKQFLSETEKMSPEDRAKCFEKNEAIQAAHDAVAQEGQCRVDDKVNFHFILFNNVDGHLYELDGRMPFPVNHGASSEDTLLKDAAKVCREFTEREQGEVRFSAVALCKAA
Experimental: (§1) Since the in‐plate synthesis was conducted in 1536‐well Echo plates, the compounds could readily be transferred from these plates into 1536‐well assay plates using acoustic liquid dispensing (Figure 2a) and subjected to HTS. We screened the whole 7536 compound library against a panel of twelve enzymes, including three DUBs from the UCH family, two DUBs from the OTU family, five DUBs from the USP family, plus ISG15 protease USP18, and SUMO protease SENP1. Each compound was tested at a single dose of 1.25 µM, assuming full conversion (10 mM in DMSO of the formed products) during the in‐plate synthesis, using the fluorogenic assay described above. […] The compounds are sorted by the amine building blocks (BB1‐16), and within each BB, sorted by carboxylic acid (CA1‐471), thereby providing a comprehensive and systematic overview of the overall inhibition by each BB and CA combination. Some interesting patterns can be obtained from this map. […] Indeed, BB10 is the privileged scaffold for UCHL1 as it originates from UCHL1 inhibitor 5 (Figure 1). […] On the other hand, OTUD1 and USP32 show a much higher hit rate, and this is even more pronounced for USP30 and ISG15 protease mUSP18, each showing many active compounds distributed over several BB's.
(§2) Purified recombinant enzymes used in this study
(§3) High-throughput screening
(§4) The screens were performed at room temperature in “flat bottom, non-treated, black […]
(§5) µM. The compounds (10 nL each) were transferred from the 1 mM daughter plates to the […]
(§6) Four wells containing DMSO
(§7) (10 nL) and four wells containing NEM (10 mM final concentration) were used in each plate […]
(§8) solution (1.33x final concentration) was added to each well, followed by incubation for 30 min.
(§9) Next, 2 µL of a substrate solution (4x final concentration) was added to each well (Ub-RhoMP[2]
(§10) After 1h or 2h incubation the
(§11) The percentage inhibition was calculated for each well using the […]
(§12) Where FIx is the fluorescence intensity of each well, FIpos is the average fluorescence intensity of the positive (NEM) control wells, and FIneg is the average fluorescence intensity of the negative (DMSO) control wells.

USP8 = target: T2, USP8 (Homo sapiens, UniProt P40818); test: as above; conditions: individual amine building block (plate NCN-5)
T2 construct: (1-1118); purchased Ubiquigent 64-0053-050
T2 sequence (P40818 1-1118): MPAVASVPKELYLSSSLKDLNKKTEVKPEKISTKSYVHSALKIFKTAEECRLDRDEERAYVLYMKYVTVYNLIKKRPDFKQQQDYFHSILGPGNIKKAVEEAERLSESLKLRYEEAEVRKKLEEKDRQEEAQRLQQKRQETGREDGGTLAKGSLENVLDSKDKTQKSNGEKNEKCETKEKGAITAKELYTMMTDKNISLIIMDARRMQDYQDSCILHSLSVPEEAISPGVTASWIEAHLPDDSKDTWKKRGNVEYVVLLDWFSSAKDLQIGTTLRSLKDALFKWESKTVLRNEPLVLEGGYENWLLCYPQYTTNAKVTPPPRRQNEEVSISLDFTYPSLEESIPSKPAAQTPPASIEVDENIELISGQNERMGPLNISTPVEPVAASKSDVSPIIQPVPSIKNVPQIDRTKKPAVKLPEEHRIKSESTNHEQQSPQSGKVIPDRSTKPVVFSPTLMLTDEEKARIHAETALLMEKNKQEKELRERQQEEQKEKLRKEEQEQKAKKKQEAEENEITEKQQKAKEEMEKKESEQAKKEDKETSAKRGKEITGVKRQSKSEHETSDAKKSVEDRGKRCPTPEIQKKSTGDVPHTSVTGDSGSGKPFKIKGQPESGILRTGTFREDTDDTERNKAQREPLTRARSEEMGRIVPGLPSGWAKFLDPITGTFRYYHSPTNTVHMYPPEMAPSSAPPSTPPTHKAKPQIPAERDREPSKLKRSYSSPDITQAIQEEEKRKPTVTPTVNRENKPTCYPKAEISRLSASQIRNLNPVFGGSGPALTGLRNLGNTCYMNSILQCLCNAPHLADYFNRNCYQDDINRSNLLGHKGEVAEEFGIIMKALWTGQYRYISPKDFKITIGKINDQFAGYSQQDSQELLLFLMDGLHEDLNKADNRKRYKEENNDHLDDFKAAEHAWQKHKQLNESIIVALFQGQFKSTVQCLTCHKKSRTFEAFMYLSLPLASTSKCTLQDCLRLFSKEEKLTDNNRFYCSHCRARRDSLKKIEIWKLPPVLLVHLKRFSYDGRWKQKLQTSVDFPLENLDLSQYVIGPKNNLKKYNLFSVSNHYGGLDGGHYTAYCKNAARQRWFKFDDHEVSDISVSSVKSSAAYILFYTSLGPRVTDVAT
Experimental: as §1, §2, §3, §4, §5, §6, §7, §8, §9, §10, §11, §12

USP24 = target: T3, USP24 (Homo sapiens, UniProt Q9UPU5); test: as above; conditions: individual amine building block (plate NCN-5); read-out: BB %inhibition USP24
T3 construct: (1-2620); His10; purchased Biotechne E-616
Experimental: as §1, §2, §3, §4, §5, §6, §7, §8, §9, §10, §11, §12

USP32 = target: T4, USP32 (Homo sapiens, UniProt Q8NFA0); test: as above; conditions: individual amine building block (plate NCN-5); read-out: BB %inhibition USP32
T4 construct: (1-1604); His-tag (N); made in house
Experimental: as §1, §2, §3, §4, §5, §6, §7, §8, §9, §10, §11, §12

UCHL5 = target: T5, UCHL5 (Homo sapiens, UniProt Q9Y5K5); test: as above; conditions: individual amine building block (plate NCN-5); read-out: BB %inhibition UCHL5
T5 construct: (1-329); purchased Novus biochemicals NBP1-72315
T5 sequence (Q9Y5K5 1-329): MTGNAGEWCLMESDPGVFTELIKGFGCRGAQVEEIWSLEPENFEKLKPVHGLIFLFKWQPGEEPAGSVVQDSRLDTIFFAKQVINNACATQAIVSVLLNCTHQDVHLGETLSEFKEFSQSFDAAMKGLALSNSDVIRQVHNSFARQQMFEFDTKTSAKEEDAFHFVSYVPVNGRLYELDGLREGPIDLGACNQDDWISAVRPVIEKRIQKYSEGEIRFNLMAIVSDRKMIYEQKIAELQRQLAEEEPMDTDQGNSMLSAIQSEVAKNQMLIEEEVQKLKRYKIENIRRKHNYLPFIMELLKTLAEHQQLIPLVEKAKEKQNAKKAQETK
Experimental: as §1, §2, §3, §4, §5, §6, §7, §8, §9, §10, §11, §12

SENP1 = target: T6, SENP1 (Homo sapiens, UniProt Q9P0U3); test: High-throughput screening, single dose 1.25 µM; conditions: individual amine building block (plate NCN-5); read-out: BB %inhibition SENP1
T6 sequence (Q9P0U3 419-644): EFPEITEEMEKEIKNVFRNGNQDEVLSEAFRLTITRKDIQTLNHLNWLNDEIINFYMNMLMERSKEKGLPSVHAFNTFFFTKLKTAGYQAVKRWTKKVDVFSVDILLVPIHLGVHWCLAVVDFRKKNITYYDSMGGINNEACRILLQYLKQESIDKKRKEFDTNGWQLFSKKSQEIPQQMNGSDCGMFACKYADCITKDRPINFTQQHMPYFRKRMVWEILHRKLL
Experimental: as §1, §2, §3, §4, §5, §6, §7, §8, §9, §10, §11, §12

T4 sequence (Q8NFA0 whole entry): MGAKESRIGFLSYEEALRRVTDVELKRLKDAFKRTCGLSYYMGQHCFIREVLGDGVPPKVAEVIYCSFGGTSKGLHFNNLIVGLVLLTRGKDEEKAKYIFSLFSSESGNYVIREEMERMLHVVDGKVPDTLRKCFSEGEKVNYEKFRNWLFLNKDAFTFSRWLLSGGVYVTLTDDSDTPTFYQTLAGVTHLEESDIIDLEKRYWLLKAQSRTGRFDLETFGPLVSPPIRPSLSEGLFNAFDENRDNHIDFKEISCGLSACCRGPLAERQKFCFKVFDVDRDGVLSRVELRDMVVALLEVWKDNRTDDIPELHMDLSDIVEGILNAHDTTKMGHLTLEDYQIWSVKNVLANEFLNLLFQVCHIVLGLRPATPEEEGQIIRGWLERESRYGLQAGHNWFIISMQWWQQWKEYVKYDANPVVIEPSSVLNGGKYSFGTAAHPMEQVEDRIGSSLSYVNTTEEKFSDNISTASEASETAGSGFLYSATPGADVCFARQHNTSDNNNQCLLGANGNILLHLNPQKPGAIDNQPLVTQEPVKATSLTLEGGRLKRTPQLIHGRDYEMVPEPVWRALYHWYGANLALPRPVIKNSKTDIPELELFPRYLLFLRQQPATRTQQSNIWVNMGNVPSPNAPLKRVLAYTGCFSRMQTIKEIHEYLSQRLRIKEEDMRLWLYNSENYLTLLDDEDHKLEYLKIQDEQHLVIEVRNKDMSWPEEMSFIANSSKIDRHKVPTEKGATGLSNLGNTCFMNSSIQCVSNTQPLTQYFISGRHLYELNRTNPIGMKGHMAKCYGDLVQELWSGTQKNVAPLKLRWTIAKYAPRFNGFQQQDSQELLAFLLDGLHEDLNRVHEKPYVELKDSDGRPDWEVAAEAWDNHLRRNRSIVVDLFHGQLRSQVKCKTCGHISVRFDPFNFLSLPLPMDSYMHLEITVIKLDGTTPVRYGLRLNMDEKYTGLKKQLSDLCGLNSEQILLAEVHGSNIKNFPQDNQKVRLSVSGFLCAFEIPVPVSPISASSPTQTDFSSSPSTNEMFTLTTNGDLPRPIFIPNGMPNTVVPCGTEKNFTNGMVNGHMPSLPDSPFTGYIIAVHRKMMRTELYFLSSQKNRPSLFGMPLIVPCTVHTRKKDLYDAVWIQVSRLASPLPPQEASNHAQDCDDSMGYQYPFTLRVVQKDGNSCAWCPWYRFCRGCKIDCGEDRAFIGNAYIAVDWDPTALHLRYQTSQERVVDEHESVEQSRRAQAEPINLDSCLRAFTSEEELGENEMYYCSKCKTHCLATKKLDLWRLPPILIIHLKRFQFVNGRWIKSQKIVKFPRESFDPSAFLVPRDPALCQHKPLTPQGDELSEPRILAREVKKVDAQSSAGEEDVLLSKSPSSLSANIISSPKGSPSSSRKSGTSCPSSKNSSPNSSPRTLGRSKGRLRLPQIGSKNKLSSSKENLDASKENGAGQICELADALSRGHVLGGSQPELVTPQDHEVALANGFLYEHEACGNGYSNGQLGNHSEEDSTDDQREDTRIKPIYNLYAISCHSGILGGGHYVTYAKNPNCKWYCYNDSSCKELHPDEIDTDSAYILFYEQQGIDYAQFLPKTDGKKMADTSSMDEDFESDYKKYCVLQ
T3 sequence (Q9UPU5 whole entry): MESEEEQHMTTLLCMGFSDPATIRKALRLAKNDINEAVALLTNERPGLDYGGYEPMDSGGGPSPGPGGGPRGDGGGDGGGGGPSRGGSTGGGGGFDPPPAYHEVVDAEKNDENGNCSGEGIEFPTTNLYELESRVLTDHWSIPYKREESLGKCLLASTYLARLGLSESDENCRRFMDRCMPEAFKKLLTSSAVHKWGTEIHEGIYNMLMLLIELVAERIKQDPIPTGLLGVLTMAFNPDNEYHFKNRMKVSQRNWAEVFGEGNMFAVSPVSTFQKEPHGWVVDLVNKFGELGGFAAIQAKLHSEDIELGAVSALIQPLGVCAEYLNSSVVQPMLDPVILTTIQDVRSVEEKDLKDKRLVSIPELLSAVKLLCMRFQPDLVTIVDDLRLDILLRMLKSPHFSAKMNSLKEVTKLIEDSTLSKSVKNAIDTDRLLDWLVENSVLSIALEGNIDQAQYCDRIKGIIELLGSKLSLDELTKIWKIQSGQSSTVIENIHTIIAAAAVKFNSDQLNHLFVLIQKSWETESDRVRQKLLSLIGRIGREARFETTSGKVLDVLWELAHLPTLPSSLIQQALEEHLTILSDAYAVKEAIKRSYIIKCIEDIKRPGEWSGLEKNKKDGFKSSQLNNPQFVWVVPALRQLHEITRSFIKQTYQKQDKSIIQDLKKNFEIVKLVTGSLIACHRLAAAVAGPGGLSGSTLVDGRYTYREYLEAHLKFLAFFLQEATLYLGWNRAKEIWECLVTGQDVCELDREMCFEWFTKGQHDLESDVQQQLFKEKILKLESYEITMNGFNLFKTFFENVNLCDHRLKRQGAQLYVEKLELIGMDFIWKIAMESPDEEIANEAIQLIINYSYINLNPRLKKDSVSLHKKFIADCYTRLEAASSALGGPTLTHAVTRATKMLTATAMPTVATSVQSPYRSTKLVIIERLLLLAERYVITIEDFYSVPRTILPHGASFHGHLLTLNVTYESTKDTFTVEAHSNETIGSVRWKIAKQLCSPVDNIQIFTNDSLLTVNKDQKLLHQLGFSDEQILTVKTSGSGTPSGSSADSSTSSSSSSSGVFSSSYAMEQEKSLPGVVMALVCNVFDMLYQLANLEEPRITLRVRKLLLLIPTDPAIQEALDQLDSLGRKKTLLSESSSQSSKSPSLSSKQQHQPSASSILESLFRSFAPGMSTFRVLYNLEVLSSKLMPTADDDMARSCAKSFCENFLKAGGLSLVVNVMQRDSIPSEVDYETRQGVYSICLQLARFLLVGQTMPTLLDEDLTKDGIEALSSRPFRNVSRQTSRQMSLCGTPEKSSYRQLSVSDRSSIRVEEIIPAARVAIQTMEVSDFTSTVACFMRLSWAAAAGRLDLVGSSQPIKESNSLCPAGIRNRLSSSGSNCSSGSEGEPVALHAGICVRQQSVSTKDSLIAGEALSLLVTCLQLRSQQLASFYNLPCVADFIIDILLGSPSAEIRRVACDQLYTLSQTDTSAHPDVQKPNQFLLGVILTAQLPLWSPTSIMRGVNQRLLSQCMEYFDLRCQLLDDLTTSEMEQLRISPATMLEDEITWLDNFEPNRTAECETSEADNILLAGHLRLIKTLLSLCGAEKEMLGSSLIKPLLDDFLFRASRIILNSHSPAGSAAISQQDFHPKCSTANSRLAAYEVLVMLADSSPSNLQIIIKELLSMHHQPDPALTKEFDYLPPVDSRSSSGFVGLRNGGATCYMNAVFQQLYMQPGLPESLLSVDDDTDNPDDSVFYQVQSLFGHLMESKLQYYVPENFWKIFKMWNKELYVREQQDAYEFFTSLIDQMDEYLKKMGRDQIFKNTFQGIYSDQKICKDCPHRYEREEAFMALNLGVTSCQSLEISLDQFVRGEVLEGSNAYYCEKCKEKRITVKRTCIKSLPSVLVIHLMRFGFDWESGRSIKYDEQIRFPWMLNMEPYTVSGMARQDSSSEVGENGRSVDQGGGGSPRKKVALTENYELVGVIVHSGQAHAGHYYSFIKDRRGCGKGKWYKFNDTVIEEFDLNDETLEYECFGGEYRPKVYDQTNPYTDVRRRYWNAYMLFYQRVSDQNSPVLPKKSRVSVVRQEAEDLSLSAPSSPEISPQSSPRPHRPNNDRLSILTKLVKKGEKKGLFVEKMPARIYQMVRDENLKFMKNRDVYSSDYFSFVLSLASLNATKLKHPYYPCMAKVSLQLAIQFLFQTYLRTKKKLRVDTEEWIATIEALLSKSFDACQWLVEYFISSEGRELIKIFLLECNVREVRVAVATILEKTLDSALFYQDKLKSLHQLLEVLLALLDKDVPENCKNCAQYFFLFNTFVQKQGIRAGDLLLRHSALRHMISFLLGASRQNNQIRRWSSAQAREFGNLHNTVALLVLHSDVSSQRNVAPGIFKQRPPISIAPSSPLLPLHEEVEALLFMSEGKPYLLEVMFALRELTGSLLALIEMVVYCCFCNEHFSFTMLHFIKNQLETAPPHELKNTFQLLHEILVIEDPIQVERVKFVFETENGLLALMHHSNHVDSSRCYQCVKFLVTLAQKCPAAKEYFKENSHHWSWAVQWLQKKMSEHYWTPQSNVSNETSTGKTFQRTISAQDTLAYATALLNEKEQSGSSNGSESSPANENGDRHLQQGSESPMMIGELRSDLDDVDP

- inhibition at 1.25 µM (UCHL1): 1.3%
- BB %inhibition USP8 (USP8): -3.5%
- inhibition at 1.25 µM (USP24): 9.2%
- inhibition at 1.25 µM (USP32): -6.1%
- inhibition at 1.25 µM (UCHL5): -7.7%
- inhibition at 1.25 µM (SENP1): 4%
Compound: N#CN1CCC(n2cc(N)cn2)CC1 [BB16]
